Data published in patent publication US8541427B2, “Phenyl-substituted 2-imino-3-methyl pyrrolo pyrimidinone compounds as BACE-1 inhibitors, compositions, and their use” (Merck, Sharp & Dohme, Corp., priority 2008, dated 2013).
Read-outs that look alike come from different tables or passages of the source.

Legend:
[1] = target: CYP2D6 (Homo sapiens (Human), UniProt P10635); assay: CYP Inhibition Assay, CYP2D6; type: in vitro ADME; details: human liver microsomes
[2] = target: CYP3A4 (Homo sapiens (Human), UniProt P08684); assay: CYP Inhibition Assay, CYP3A4; type: in vitro ADME; details: human liver microsomes;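 also: CYP probe substrate held near its Km, inhibition judged from metabolite formation quantified by LC-MS/MS against a standard curve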
[3] = target: CYP2C9 (Homo sapiens (Human), UniProt P11712); assay: CYP Inhibition Assay, CYP2C9; type: in vitro ADME; details: human liver microsomes;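 also: probe substrate held close to its Km, with metabolite formation quantified by LC-MS/MS against a calibration curve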
[4] = target: soluble human BACE1 catalytic domain (Homo sapiens (Human), UniProt P56817); assay: BACE1 HTRF FRET Assay; type: biochemical; details: Ki calculated from IC50 with Cheng-Prusoff equation;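 also: cleavage of a quenched APP Swedish mutant peptide (QSY7 quencher, Europium donor) measured as rise in 620 nm fluorescence after 1.5 h at 30 °C, inhibition suppresses signal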
[5] = target: BACE1 (Aβ40 in HEK293-APPswe/lon cells) (Homo sapiens (Human), UniProt P56817); assay: BACE Inhibitor Whole Cell IC50 Determination Using HEK293-APPswe/lon Cells (Aβ40); type: cell-based; details: 4 hours
[6] = target: human liver Cathepsin D (Homo sapiens (Human), UniProt P07339); assay: Human Cathepsin D FRET Assay; type: biochemical; details: selectivity with respect to Cathepsin D vs BACE1
[7] = target: hERG (Homo sapiens (Human), UniProt Q12809); assay: hERG screening, IonWorks Quattro (hERG L929 cells); type: cell-based; details: L929 cells expressing hERG; for inhibition at 5 min, 1 uM: read-out: HERG Ionworks % Inhib 1 uM; for inhibition at 5 min, 10 uM: read-out: HERG Ionworks % Inhib 10 uM
[8] = 30 min pre-incubation with NADPH, read-out: CYP 2D6 IC50 pre
[9] = co-incubation, read-out: CYP 2D6 IC50 co
[10] = 30 min pre-incubation with NADPH, read-out: CYP 3A4 IC50 pre
[11] = co-incubation, read-out: CYP 3A4 IC50 co
[12] = 30 min pre-incubation with NADPH, read-out: CYP 2C9 IC50 pre
[13] = co-incubation, read-out: CYP 2C9 IC50 co

Sequence of human liver Cathepsin D (P07339 65-412): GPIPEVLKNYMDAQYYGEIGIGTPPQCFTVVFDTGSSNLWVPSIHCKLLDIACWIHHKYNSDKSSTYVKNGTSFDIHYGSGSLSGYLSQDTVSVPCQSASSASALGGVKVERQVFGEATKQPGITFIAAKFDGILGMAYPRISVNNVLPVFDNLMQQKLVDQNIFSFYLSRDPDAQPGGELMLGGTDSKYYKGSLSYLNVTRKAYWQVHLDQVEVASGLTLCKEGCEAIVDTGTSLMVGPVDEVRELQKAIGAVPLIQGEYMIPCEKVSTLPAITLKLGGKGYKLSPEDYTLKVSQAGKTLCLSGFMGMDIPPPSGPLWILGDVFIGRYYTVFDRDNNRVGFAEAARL
Sequence of human liver Cathepsin D (P07339 169-412): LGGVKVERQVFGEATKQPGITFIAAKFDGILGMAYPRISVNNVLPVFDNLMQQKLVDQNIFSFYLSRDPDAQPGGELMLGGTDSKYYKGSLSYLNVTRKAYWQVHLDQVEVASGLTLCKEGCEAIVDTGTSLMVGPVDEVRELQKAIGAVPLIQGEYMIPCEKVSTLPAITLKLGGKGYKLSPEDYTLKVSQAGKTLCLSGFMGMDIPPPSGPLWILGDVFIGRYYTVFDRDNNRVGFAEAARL
Sequence of soluble human BACE1 catalytic domain (P56817 75-416): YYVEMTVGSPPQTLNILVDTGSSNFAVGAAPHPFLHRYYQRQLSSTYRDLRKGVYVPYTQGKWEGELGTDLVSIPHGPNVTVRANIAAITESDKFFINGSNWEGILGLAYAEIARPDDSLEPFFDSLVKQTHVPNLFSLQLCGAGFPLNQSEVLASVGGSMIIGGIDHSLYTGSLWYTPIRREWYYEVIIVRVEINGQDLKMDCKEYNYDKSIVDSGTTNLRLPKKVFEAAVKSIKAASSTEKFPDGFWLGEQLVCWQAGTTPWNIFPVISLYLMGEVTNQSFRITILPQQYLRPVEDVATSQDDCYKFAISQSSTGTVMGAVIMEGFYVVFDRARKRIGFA
Sequence of CYP2C9 (P11712 whole entry, the tested form may be a part): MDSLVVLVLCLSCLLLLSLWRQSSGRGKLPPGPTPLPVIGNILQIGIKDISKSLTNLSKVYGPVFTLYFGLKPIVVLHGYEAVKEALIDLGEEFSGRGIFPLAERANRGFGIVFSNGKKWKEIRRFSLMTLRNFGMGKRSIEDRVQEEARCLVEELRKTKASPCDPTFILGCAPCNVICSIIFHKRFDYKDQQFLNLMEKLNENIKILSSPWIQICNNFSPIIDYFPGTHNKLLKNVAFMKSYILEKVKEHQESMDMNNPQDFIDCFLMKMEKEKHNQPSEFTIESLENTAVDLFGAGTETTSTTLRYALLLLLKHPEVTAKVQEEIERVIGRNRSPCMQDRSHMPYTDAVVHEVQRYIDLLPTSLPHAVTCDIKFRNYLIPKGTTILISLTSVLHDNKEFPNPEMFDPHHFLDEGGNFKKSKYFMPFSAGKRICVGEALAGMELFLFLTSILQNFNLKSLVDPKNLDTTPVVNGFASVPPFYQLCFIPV
Sequence of hERG (Q12809 whole entry): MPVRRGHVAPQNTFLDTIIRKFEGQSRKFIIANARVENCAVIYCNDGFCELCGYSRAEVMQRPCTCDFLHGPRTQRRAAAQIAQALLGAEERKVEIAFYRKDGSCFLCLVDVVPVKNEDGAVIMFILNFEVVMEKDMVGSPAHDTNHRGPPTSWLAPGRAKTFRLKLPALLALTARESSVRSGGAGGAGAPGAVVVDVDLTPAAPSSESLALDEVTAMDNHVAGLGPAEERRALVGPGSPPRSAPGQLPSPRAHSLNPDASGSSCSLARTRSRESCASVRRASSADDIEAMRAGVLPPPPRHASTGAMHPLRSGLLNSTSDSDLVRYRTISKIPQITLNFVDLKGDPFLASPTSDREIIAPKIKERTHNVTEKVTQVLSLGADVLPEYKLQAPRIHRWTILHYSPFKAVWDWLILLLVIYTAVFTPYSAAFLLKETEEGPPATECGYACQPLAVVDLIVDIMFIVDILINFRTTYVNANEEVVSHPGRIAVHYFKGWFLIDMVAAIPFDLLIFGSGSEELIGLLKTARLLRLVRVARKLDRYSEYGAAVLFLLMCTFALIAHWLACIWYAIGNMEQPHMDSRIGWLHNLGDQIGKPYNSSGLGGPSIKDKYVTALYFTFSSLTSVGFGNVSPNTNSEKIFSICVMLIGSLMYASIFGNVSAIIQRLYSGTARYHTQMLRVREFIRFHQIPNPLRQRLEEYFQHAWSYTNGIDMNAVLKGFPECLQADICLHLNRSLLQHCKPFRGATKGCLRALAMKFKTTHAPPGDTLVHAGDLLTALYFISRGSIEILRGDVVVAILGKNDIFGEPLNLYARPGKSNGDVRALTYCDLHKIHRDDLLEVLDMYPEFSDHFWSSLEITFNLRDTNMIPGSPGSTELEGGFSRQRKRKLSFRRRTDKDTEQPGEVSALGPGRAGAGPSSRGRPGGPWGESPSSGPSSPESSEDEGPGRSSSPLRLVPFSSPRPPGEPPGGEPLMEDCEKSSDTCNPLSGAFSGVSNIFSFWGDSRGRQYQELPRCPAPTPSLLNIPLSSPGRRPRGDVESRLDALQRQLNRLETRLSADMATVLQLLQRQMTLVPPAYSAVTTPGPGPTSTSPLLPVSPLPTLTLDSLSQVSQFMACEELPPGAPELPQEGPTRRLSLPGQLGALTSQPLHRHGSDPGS
Sequence of CYP3A4 (P08684 whole entry): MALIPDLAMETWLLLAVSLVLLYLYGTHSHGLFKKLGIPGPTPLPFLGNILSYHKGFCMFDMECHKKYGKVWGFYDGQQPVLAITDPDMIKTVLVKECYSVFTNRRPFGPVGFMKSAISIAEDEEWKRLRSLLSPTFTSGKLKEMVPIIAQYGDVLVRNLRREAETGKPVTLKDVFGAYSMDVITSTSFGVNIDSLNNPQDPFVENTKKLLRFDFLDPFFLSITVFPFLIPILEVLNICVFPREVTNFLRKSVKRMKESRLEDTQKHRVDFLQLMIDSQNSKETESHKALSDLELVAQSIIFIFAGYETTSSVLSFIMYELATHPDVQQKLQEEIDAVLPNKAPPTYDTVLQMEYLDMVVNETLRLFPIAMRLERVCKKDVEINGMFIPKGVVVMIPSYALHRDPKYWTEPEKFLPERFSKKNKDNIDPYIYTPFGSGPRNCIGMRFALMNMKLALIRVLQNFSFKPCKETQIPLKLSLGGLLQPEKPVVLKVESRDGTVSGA
Sequence of BACE1 (Aβ40 in HEK293-APPswe/lon cells) (P56817 46-501): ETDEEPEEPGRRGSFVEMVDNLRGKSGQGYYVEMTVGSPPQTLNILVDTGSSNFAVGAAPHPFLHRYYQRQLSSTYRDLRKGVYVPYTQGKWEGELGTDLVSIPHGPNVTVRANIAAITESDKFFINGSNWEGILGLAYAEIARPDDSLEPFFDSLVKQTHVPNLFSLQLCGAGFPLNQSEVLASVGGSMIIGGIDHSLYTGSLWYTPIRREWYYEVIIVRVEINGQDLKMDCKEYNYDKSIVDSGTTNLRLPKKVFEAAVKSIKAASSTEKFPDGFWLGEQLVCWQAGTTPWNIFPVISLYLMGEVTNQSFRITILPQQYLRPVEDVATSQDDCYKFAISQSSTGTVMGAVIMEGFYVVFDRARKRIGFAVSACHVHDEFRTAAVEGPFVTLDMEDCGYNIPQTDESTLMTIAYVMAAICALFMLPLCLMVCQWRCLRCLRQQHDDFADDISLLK
Sequence of CYP2D6 (P10635 whole entry): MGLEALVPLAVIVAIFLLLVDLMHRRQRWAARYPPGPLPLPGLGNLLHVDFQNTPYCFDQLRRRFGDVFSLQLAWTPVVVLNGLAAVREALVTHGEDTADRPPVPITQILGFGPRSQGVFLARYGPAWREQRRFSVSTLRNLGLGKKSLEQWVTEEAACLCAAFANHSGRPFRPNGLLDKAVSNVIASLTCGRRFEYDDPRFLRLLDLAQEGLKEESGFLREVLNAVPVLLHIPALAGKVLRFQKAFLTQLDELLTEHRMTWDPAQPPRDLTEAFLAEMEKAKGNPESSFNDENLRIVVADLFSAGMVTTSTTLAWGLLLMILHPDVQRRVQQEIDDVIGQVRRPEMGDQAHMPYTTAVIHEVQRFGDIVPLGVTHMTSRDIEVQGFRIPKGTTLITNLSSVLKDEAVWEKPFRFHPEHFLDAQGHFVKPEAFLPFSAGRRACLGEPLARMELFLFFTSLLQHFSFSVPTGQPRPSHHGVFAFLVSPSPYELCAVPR

Structure (SMILES)	IC50 [1, 8] [µM]	IC50 [1, 9] [µM]	IC50 [2, 10] [µM]	IC50 [2, 11] [µM]	IC50 [3, 12] [µM]	IC50 [3, 13] [µM]	Ki [4] [µM]	IC50 [5] [µM]	CathD Selectivity [6]	inhibition at 5 min, 1 uM [7] [%]	inhibition at 5 min, 10 uM [7] [%]
CCOc1nc(N2C[C@H]3C(=O)N(C)C(N)=N[C@@]3(c3ccccc3)C2)nc(C)c1F (racemic) [4 racemic]	> 30	~30	> 30	> 30	> 30	> 30					
CCc1nc(N2C[C@H]3C(=O)N(C)C(N)=N[C@@]3(c3ccccc3)C2)nc(C)c1F (racemic) [5 racemic]	> 30	~30	> 30	> 30	> 30	> 30	0.061	0.217			
CCc1nc(N2C[C@H]3C(=O)N(C)C(=N)N[C@@]3(c3ccccc3)C2)nc(OC)c1F (racemic) [6 racemic]	~30	24.9	> 30	> 30	> 30	> 30	0.016	0.144	318		
Cc1nc(N2C[C@H]3C(=O)N(C)C(N)=N[C@@]3(c3ccccc3)C2)nc(C2CC2)c1Cl (racemic) [7 racemic]							0.094	0.664			
Cc1nc(N2C[C@H]3C(=O)N(C)C(N)=N[C@@]3(c3ccccc3)C2)nc(C)c1F (racemic) [23 racemic]	> 30	> 30	> 30	> 30	> 30	> 30	0.154	0.292			
CCOc1nc(N2C[C@H]3C(=O)N(C)C(=N)N[C@@]3(c3ccccc3)C2)nc(OC)c1F (racemic) [24 racemic]	~30	22.6	> 30	> 30	> 30	> 30	0.137		129		
Cc1nc(N2C[C@H]3C(=O)N(C)C(N)=N[C@@]3(c3ccccc3)C2)nc(C2CC2)c1F (racemic) [25 racemic]	> 20	> 20	> 20	> 20	> 20	> 20	0.044	0.349			
CCc1nc(N2C[C@H]3C(=O)N(C)C(N)=N[C@@]3(c3ccccc3)C2)nc(C2CC2)c1Cl (racemic) [26 racemic]	> 20	> 20	> 20	> 20	> 20	> 20	0.18				
COc1nc(N2C[C@H]3C(=O)N(C)C(=N)N[C@@]3(c3ccc(F)c(Cl)c3F)C2)nc(C)c1F (racemic) [39 racemic]	> 20	> 20	> 20	> 20	> 20	> 20	0.0092	0.04	221	3	61
COc1nc(N2C[C@H]3C(=O)N(C)C(=N)N[C@@]3(c3cc(F)ccc3Cl)C2)nc(C)c1F [Example 2]	> 20	> 20	> 20	> 20	> 20	> 20			162	8	50
COc1nc(N2C[C@H]3C(=O)N(C)C(=N)N[C@@]3(c3cc(Cl)ccc3F)C2)nc(C)c1F [Example 3]	> 20	> 20	> 20	> 20	12.7	8.5				22	89
COc1nc(N2C[C@H]3C(=O)N(C)C(N)=N[C@@]3(c3cc(F)c(F)cc3F)C2)nc(C)c1F [Example 8]	> 20	> 20	> 20	> 20	> 20	> 20				21	89
COc1nc(N2C[C@H]3C(=O)N(C)C(=N)N[C@@]3(c3cc(F)ccc3F)C2)nc(OC)c1F [Example 9]	> 30	> 30	18.6	> 30	~30	~30	0.0056	0.066	386	12	71
COc1nc(N2C[C@H]3C(=O)N(C)C(=N)N[C@@]3(c3ccc(F)cc3F)C2)nc(OC)c1F [Example 10]	> 30	~30	> 30	> 30	> 30	> 30	0.0018	0.0075	583	7	74
COc1nc(N2C[C@H]3C(=O)N(C)C(=N)N[C@@]3(c3c(F)cc(F)cc3F)C2)nc(C)c1F [Example 13]	> 20	> 20	> 20	> 20	> 20	> 20	0.015	0.021	773		
Cc1nc(N2C[C@H]3C(=O)N(C)C(=N)N[C@@]3(c3cccc(C#N)c3)C2)nc(C2CC2)c1F [Example 14]	> 20	> 20	> 20	> 20	> 20	> 20	0.043	0.213		6	59
COc1nc(N2C[C@H]3C(=O)N(C)C(=N)N[C@@]3(c3ccccc3F)C2)nc(C)c1Cl [Example 18]							0.0093	0.032	228		
COc1nc(N2C[C@H]3C(=O)N(C)C(=N)N[C@@]3(c3cccc(Cl)c3)C2)nc(C)c1F [Example 33]							0.039	0.176	43		
Cc1nc(N2C[C@H]3C(=O)N(C)C(=N)N[C@@]3(c3cc(F)ccc3F)C2)nc(C2CC2)c1F [Example 37]	> 20	> 20	> 20	> 20	> 20	> 20	0.026	0.235		12	73
COc1nc(N2C[C@H]3C(=O)N(C)C(N)=N[C@@]3(c3c(F)ccc(F)c3F)C2)nc(C)c1F [Example 40]	> 20	> 20	> 20	> 20	> 20	> 20				15	81
COc1nc(N2C[C@H]3C(=O)N(C)C(=N)N[C@@]3(c3ccc(F)cc3F)C2)nc(C(F)(F)F)c1F [Example 41]							0.032	0.067	346	1	77
COc1nc(N2C[C@H]3C(=O)N(C)C(=N)N[C@@]3(c3ccc(F)cc3F)C2)nc(C(C)(F)F)c1F [Example 42]							0.011				
